Data: patent publication US8058417B2, “Biosynthetic pathway and genes required for tropodithietic acid biosynthesis in silicibacter TM1040” (priority 2006, dated 2011)
In brackets after ≈: the same amount, converted by molar mass.

Columns and labels:
[1] = system: Mycobacterium tuberculosis strain H37Rv; assay: Minimal Inhibitory Concentration (MIC) of TDA against Mycobacterium tuberculosis; format: cell-based
From the text: Against Mycobacterium tuberculosis strain H37Rv

[2] = system: V. anguillarium; assay: Regrowth of V. anguillarium in fresh nutrient broth after TDA exposure (bactericidal test); format: cell-based, Vibrio anguillarium; settings: 5 ug per ml (3x MIC) for 90 minutes, FIG. 13
Protocol: FIG. 13 is a graph showing the bactericidal character of TDA against Vibrio anguillarum, illustrating the results using control (squares; buffer only), control 0.001 (circles), TDA (triangles), and TDA 0.001 (inverted triangles), as described in Example 10. V. anguillarium was exposed to 5 ug TDS per ml (3× MIC) for 90 minutes, after which the cells were washed and suspended in fresh nutrient broth. […] The results, as set forth in the graph of FIG. 13 indicate that the activity of TDA is bactericidal for this bacterial species, not simply bacteristatic.

[3] = system: V. anguillarium; assay: Swimming (motility) of V. anguillarium exposed to TDA; format: cell-based, Vibrio anguillarium; settings: exposed to 5 ug TDA per ml (ca. 3x MIC)
From the text: It is unlikely that the mechanism of action of TDS involves inhibition of protein, DNA or RNA synthesis, transcription, or translation, all of which would require more time to inhibit.

[4] = system: Vibrio anguillarium; assay: Minimal Inhibitory Concentration (MIC) of TDA against Vibrio anguillarium; format: cell-based; settings: FIG. 12
From the text: FIG. 12 is a graph showing the efficacy of TDA against Vibrio anguillarum, as described in Example 10.

[5] = system: Methicillin-resistant Staphylococcus aureus (MRSA) strain USA300; assay: Minimal Inhibitory Concentration (MIC) of TDA against MRSA; format: cell-based
From the text: Against Methicillin-resistant Staphylococcus aureus (MRSA) strain USA300

SMILES: O=C(O)c1c(=O)cccc2ssc12 [TDA, tropodithietic acid]
- Result in words: killing of M. tuberculosis [1]: kills
- MIC ([1]; M. tuberculosis strain H37Rv): 7.8 µg/mL (≈ 36.7 µM)
- Character of activity (bactericidal vs bacteristatic) [2]: bactericidal
- Growth of exposed cells after washing and suspension in fresh nutrient broth ([2]; control cells exposed to buffer grew normally): failed to grow
- Time until V. anguillarium stopped swimming [3]: ≤ 70 s
- MIC [4]: 1.5 µg/mL (≈ 7.07 µM)
- Result in words: killing of V. anguillarium [4]: kills
- MIC [5]: 40 µg/mL (≈ 188 µM)
- Result in words: killing of MRSA [5]: kills
